Assay results from US9617267B2, “Compounds and methods for kinase modulation, and indications therefor” (Plexxikon Inc., priority 2009, dated 2017).
Like-named read-outs stand apart in the source and are kept apart here.

Columns and labels:
CYP1A2 = CYP1A2 (Homo sapiens (Human), UniProt P05177); assay: CYP enzyme inhibition, fluorescent substrate (CEC)
In short: (§1)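 IC50 derived from loss of fluorescent metabolite across a 10-point 1:1 dilution series. CYP2D6: 1.5 pmol enzyme, 1.5 μM AMMC, 30 min at 37 °C, 409/530 nm; CYP1A2: 0.5 pmol, 5 μM CEC, 15 min, 409/460 nm. Compounds pre-incubated 10 min in NADPH-regenerating mix.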

CYP2C19 = CYP2C19 (Homo sapiens (Human), UniProt P33261); assay: CYP enzyme inhibition, fluorescent substrate (CEC); details: read-out: Cyp IC50 2C19; CYP2C19, substrate CEC
Sequence of CYP2C19 (P33261 whole entry): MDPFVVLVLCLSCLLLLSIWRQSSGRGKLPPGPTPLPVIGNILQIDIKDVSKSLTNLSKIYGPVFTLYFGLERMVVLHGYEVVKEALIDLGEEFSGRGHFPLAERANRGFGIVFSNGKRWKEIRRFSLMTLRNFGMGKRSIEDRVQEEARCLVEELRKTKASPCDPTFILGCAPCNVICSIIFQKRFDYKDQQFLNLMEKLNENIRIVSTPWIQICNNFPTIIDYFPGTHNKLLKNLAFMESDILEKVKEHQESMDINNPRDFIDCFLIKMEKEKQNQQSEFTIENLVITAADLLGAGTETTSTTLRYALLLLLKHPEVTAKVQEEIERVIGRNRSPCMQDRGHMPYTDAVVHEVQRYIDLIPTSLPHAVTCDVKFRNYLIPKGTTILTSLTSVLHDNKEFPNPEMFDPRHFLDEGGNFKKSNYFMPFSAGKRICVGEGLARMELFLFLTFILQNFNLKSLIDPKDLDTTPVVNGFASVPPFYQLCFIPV
In short: (§2)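 10-pt 1:1 serial dilution in co-factor mix (DMSO stock 100 mM); 10 min preincubation, 37 °C; reaction at 37 °C. Readout: fluorescent metabolite of probe substrate. IC50 from signal vs [compound].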

CYP3A4(BQ) = CYP3A4(BQ) (Homo sapiens (Human), UniProt P08684); assay: CYP enzyme inhibition, fluorescent substrate BQ; details: read-out: Cyp IC50 3A4(BQ); CYP3A4, substrate BQ
Sequence of CYP3A4(BQ) (P08684 whole entry): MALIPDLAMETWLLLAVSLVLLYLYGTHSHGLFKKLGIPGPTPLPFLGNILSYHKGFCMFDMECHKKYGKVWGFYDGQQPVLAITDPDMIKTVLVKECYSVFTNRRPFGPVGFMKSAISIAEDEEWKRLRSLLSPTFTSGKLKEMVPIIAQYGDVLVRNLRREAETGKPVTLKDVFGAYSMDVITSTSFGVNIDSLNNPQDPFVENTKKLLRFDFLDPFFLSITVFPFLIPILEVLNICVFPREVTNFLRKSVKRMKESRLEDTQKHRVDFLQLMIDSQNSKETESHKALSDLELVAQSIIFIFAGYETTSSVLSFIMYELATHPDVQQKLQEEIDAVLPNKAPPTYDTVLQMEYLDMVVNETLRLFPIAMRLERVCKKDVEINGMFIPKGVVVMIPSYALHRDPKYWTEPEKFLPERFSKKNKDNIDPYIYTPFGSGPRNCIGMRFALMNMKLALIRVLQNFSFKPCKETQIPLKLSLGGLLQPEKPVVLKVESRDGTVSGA
Protocol: CYP (Cytochrome P450) enzymes are the major drug metabolizing enzymes present in the liver. The inhibition of CYP enzyme activity (IC50) for each of CYP1A2, CYP2C19, CYP2C9, CYP2D6, CYP3A4(BFC) and CYP3A4(BQ) is determined for compounds, where inhibition of metabolism of a known substrate leads to a decrease in the fluorescence of the metabolized product. The fluorescence of the product is monitored as a function of compound concentration.
Compounds are dissolved in dimethyl sulfoxide to a concentration of 100 mM. These are diluted 1 μL into 82 μL of acetonitrile. […] These are then serially diluted 1:1 (160 μL to 160 μL co-factor mix) for a total of 10 points. A 10 μL aliquot of this final mixture is dispensed into 384 well assay plates and incubated for 10 minutes at 37° C. […] Assay plates are incubated at 37° C. […] The signal versus compound concentration is used to determine the IC50. The enzymes and substrates for this assay are obtained from BD Biosciences.

CYP3A4(BFC) = CYP3A4(BFC) (Homo sapiens (Human), UniProt P08684); assay: CYP enzyme inhibition, fluorescent substrate BFC; details: read-out: Cyp IC50 3A4(BFC); CYP3A4, substrate BFC
Sequence of CYP3A4(BFC) (P08684 whole entry): as above
In short: as §2

[1] = Relative solubility by turbidity threshold concentration in aqueous buffers (pH 1.5, 4.5, 6.8, 7.4); assay type: physicochemical; details: for turbidity threshold (L, M, H) 1.4: pH 1.4 [sic] (method: SGF pH 1.5); for turbidity threshold (L, M, H) 4.5: pH 4.5 (SIF); for turbidity threshold (L, M, H) 6.8: pH 6.8 (SIF); for turbidity threshold (L, M, H) 7.4: pH 7.4 (HEPES)
In short: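 Solubility class (high >250 μM, moderate 31.3–250 μM, low <31.3 μM) comes from the concentration where absorbance reaches a 0.01 threshold, averaged across 490/535/650 nm. Samples were compound dilutions from DMSO stock, 1 μL into 99 μL buffer at pH 1.5, 4.5, 6.8 or 7.4.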

CYP2C9 = CYP2C9 (Homo sapiens (Human), UniProt P11712); assay: CYP enzyme inhibition, fluorescent substrate (MFC); details: read-out: Cyp IC50 2C9; CYP2C9, substrate MFC
Sequence of CYP2C9 (P11712 whole entry): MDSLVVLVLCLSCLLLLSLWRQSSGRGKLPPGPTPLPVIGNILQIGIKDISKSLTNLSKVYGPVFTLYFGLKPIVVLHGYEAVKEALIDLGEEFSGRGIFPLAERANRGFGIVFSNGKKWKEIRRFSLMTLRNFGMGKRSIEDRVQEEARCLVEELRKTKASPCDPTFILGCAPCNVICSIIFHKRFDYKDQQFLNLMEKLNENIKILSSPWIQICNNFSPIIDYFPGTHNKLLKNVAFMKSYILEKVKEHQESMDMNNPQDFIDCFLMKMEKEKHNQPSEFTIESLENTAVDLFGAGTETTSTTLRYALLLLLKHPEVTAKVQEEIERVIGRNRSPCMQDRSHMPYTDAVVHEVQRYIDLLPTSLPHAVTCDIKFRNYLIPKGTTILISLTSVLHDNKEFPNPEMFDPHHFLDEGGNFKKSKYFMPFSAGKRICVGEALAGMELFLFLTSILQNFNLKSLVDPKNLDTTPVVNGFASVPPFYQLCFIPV
In short: as §2

CYP2D6 = CYP2D6 (Homo sapiens (Human), UniProt P10635); assay: CYP enzyme inhibition, fluorescent substrate (AMMC); assay type: in vitro ADME; details: read-out: Cyp IC50 2D6
Sequence of CYP2D6 (P10635 whole entry): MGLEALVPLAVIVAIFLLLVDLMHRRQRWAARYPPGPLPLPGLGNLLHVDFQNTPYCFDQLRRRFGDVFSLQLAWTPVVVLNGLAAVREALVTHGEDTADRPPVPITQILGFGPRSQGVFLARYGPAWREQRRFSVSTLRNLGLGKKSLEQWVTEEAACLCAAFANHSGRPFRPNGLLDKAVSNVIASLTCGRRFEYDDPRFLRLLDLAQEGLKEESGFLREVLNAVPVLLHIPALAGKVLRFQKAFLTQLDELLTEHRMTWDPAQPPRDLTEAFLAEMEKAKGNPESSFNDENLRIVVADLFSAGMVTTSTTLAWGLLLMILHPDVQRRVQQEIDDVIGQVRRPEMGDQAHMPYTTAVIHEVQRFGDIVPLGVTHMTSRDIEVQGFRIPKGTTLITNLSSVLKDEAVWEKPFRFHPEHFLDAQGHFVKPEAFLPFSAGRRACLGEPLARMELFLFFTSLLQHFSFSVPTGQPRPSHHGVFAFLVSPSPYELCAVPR
In short: as §1

Sequence of CYP1A2 (P05177 whole entry): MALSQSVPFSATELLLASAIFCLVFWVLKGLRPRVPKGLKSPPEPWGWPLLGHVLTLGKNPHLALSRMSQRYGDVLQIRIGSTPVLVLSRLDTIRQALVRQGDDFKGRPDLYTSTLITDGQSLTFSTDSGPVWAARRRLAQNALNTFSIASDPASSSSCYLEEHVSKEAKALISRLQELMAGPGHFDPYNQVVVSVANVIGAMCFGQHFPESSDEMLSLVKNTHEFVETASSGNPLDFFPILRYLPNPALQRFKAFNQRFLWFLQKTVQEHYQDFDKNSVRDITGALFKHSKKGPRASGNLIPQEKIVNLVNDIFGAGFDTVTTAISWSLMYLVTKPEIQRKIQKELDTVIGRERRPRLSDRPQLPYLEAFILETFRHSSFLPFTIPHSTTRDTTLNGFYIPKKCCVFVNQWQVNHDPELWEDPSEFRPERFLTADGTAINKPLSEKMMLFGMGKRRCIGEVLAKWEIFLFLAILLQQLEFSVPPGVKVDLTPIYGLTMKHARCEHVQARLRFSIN

In the case of `CCCS(=O)(=O)Nc1ccc(F)c(C(=O)c2c[nH]c3ncnc(Nc4ccc(OC)cc4F)c23)c1F` [P-1101, Propane-1-sulfonic acid {2,4-difluoro-3-[4-(2-fluoro-4-methoxy-phenylamino)-7H-pyrrolo[2,3-d]pyrimidine-5-carbonyl]-phenyl}-amide], the IC50 (CYP1A2; human, 15 min) is reported as > 10 µM, the IC50 (CYP2C19) is reported as > 10 µM and the IC50 (CYP3A4(BQ)) is reported as > 10 µM. The IC50 (CYP3A4(BFC)) was > 10 µM, the “turbidity threshold (L, M, H) 1.4” value [1] was “L (low solubility if the threshold concentration is <31.3 μM)” and the “turbidity threshold (L, M, H) 4.5” value [1] was “L (low solubility if the threshold concentration is <31.3 μM)”. For the same molecule, the “turbidity threshold (L, M, H) 6.8” value [1] was “L (low solubility if the threshold concentration is <31.3 μM)”, the “turbidity threshold (L, M, H) 7.4” value [1] was “L (low solubility if the threshold concentration is <31.3 μM)” and the IC50 (CYP2C9) was > 10 µM. For the same molecule, the IC50 (CYP2D6) was > 10 µM.
In the case of `O=C(c1c(F)ccc(NS(=O)(=O)c2ccccc2F)c1F)c1c[nH]c2ncnc(NC3CC3)c12` [P-1103, N-[3-(4-Cyclopropylamino-7H-pyrrolo[2,3-d]pyrimidine-5-carbonyl)-2,4-difluoro-phenyl]-2-fluoro-benzenesulfonamide], the IC50 (CYP1A2; human, 15 min) is reported as > 10 µM, the IC50 (CYP2C19) is reported as > 10 µM and the IC50 (CYP3A4(BQ)) is reported as > 10 µM. For the same molecule, the IC50 (CYP3A4(BFC)) was > 10 µM, the “turbidity threshold (L, M, H) 1.4” value [1] was “M (moderate solubility if the threshold concentration is 31.3 μM to 250 μM)” and the “turbidity threshold (L, M, H) 4.5” value [1] was “L (low solubility if the threshold concentration is <31.3 μM)”. For the same molecule, the “turbidity threshold (L, M, H) 6.8” value [1] was “L (low solubility if the threshold concentration is <31.3 μM)”, the “turbidity threshold (L, M, H) 7.4” value [1] was “M (moderate solubility if the threshold concentration is 31.3 μM to 250 μM)” and the IC50 (CYP2C9) was > 10 µM. The IC50 (CYP2D6) was > 10 µM.
With `O=C(c1c(F)ccc(NS(=O)(=O)c2cc(F)ccc2F)c1F)c1c[nH]c2ncnc(NC3CC3)c12` [P-1104, N-[3-(4-Cyclopropylamino-7H-pyrrolo[2,3-d]pyrimidine-5-carbonyl)-2,4-difluoro-phenyl]-2,5-difluoro-benzenesulfonamide] the IC50 (CYP1A2; human, 15 min) was > 10 µM, the IC50 (CYP2C19) was > 10 µM and the IC50 (CYP3A4(BQ)) was > 10 µM. The IC50 (CYP3A4(BFC)) was > 10 µM, the “turbidity threshold (L, M, H) 1.4” value [1] was “H (high solubility if the threshold concentration is >250 μm)” and the “turbidity threshold (L, M, H) 4.5” value [1] was “M (moderate solubility if the threshold concentration is 31.3 μM to 250 μM)”. The “turbidity threshold (L, M, H) 6.8” value [1] was “M (moderate solubility if the threshold concentration is 31.3 μM to 250 μM)”, the “turbidity threshold (L, M, H) 7.4” value [1] was “M (moderate solubility if the threshold concentration is 31.3 μM to 250 μM)” and the IC50 (CYP2C9) was > 10 µM. The IC50 (CYP2D6) was > 10 µM.
In the case of `O=C(c1c(F)ccc(NS(=O)(=O)c2cc(F)ccc2F)c1F)c1c[nH]c2ncnc(C3CC3)c12` [P-1107, N-[3-(4-Cyclopropyl-7H-pyrrolo[2,3-d]pyrimidine-5-carbonyl)-2,4-difluoro-phenyl]-2,5-difluoro-benzenesulfonamide], the IC50 (CYP1A2) is reported as 5 to 10 µM, the IC50 (CYP2C19) is reported as > 10 µM and the IC50 (CYP3A4(BQ)) is reported as > 10 µM. The IC50 (CYP3A4(BFC)) was > 10 µM, the “turbidity threshold (L, M, H) 1.4” value [1] was “M (moderate solubility if the threshold concentration is 31.3 μM to 250 μM)” and the “turbidity threshold (L, M, H) 4.5” value [1] was “L (low solubility if the threshold concentration is <31.3 μM)”. For the same molecule, the “turbidity threshold (L, M, H) 6.8” value [1] was “M (moderate solubility if the threshold concentration is 31.3 μM to 250 μM)”, the “turbidity threshold (L, M, H) 7.4” value [1] was “M (moderate solubility if the threshold concentration is 31.3 μM to 250 μM)” and the IC50 (CYP2C9) was > 10 µM. For the same molecule, the IC50 (CYP2D6) was > 10 µM.
For `Cc1nn(C)cc1Nc1ncnc2[nH]cc(C(=O)c3c(F)ccc(NS(=O)(=O)c4ccccc4F)c3F)c12` [P-1154, N-{3-[4-(1,3-Dimethyl-1H-pyrazol-4-ylamino)-7H-pyrrolo[2,3-d]pyrimidine-5-carbonyl]-2,4-difluoro-phenyl}-2-fluoro-benzenesulfonamide], the IC50 (CYP1A2; human, 15 min) was > 10 µM, the IC50 (CYP2C19) was > 10 µM and the IC50 (CYP3A4(BQ)) was > 10 µM. The IC50 (CYP3A4(BFC)) was > 10 µM, the “turbidity threshold (L, M, H) 1.4” value [1] was “L (low solubility if the threshold concentration is <31.3 μM)” and the “turbidity threshold (L, M, H) 4.5” value [1] was “L (low solubility if the threshold concentration is <31.3 μM)”. For the same molecule, the “turbidity threshold (L, M, H) 6.8” value [1] was “L (low solubility if the threshold concentration is <31.3 μM)”, the “turbidity threshold (L, M, H) 7.4” value [1] was “L (low solubility if the threshold concentration is <31.3 μM)” and the IC50 (CYP2C9) was > 10 µM. The IC50 (CYP2D6) was > 10 µM.
